Test results from patent publication US9139581B2 (PORTOLA PHARMACEUTICALS, INC., priority 2008, dated 2015).

biological target: T1, full length active recombinant SYK enzyme (Homo sapiens, UniProt P43405); assay: Inhibition of Syk tyrosine phosphorylation activity (LANCE TR-FRET); type: biochemical; details: Table 3; 1 nM SYK, 100 μM ATP; read-out: Syk IC50 code
T1 construct: full length active recombinant SYK enzyme (Millipore, Calif.); purchased Millipore
In short: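 The reaction is quenched with buffer holding Eu-anti-phosphotyrosine and streptavidin-APC, and detection runs 1 hr at room temperature. TR-FRET is read and IC50s come from non-linear regression.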

Row | IC50 | Compound
1 | 100 to 1000 nM | COC(=O)N(C)c1ccc(Nc2nc(NC3CCC3)c3cc[nH]c3n2)cc1 [Example 72, Methyl 4-(4-(cyclobutylamino)-7H-pyrrolo[2,3-d]pyrimidin-2-ylamino)phenyl(methyl)carbamate]
2 | 10 to 100 nM | CNC(=O)COc1cccc(Nc2nc(Nc3ccc4cn[nH]c4c3)nc3[nH]ccc23)c1 [Example 78]
3 | 100 to 1000 nM | NC(=O)c1cccc(Nc2nc(Nc3ccc(N4CCNCC4)cc3)nc3[nH]ccc23)c1 [Example 95B, 3-(2-(4-(piperazin-1-yl)phenylamino)-7H-pyrrolo[2,3-d]pyrimidin-4-ylamino)benzamide]
4 | > 1000 nM | N[C@H]1CC[C@@H](Nc2nc(Nc3ccc4c(c3)CCC(=O)N4)ncc2-c2ccncc2)CC1 [Example 143, 6-(4-((1s,4s)-4-aminocyclohexylamino)-5-(pyridin-4-yl)pyrimidin-2-ylamino)-3,4-dihydroquinolin-2(1H)-one]
5 | 10 to 100 nM | N#Cc1c[nH]c2nc(Nc3ccc4cn[nH]c4c3)nc(NC3CC3)c12 [Example 40, 2-(1H-indazol-6-ylamino)-4-(cyclopropylamino)-7H-pyrrolo[2,3-d]pyrimidine-5-carbonitrile]
6 | > 1000 nM | CC(=O)N1CCN(c2ccc(Nc3ncc(F)c(N4CCC(NC(=O)CC#N)CC4)n3)cc2)CC1 [Example 136, N-(1-(2-(4-(4-acetylpiperazin-1-yl)phenylamino)-5-fluoropyrimidin-4-yl)piperidin-4-yl)-2-cyanoacetamide]
7 | 10 to 100 nM | NC(=O)c1ccc(Nc2nc(NC3CC3)c3c(-c4ccncc4)c[nH]c3n2)cc1 [Example 101, 4-(4-(cyclopropylamino)-5-(pyridin-4-yl)-7H-pyrrolo[2,3-d]pyrimidin-2-ylamino)benzamide]
8 | 100 to 1000 nM | NC(=O)c1ccc(Nc2ncc(F)c(N[C@H]3CC[C@@H](N)CC3)n2)cc1 [Example 141, 4-(4-((1s,4s)-4-aminocyclohexylamino)-5-fluoropyrimidin-2-ylamino)benzamide]
9 | 100 to 1000 nM | CN(C(=O)C1CC1)c1ccc(Nc2nc(NC3CC3)c3cc[nH]c3n2)cc1 [Example 81, N-(4-(4-(cyclopropylamino)-7H-pyrrolo[2,3-d]pyrimidin-2-ylamino)phenyl)-N-methylcyclopropanecarboxamide]
10 | > 1000 nM | CC(=O)N1CCN(c2ccc(Nc3ncc(F)c(N4CCN(C(=O)CC#N)CC4)n3)cc2)CC1 [Example 137, 3-(4-(2-(4-(4-acetylpiperazin-1-yl)phenylamino)-5-fluoropyrimidin-4-yl)piperazin-1-yl)-3-oxopropanenitrile]
11 | 100 to 1000 nM | CC(=O)N1CCN(c2ccc(Nc3nc(Nc4cccc(S(N)(=O)=O)c4)c4cc[nH]c4n3)cc2)CC1 [Example 96A, 3-(2-(4-(4-acetylpiperazin-1-yl)phenylamino)-7H-pyrrolo[2,3-d]pyrimidin-4-ylamino)benzenesulfonamide]
12 | 100 to 1000 nM | CNc1nc(Nc2ccc(N3CCN(C(C)=O)CC3)cc2)nc2[nH]cc(-c3ccncc3)c12 [Example 2, 1-(4-(4-(4-(methylamino)-5-(pyridin-4-yl)-7H-pyrrolo[2,3-d]pyrimidin-2-ylamino)phenyl)piperazin-1-yl)ethanone]
13 | 10 to 100 nM | CN(CC(=O)O)S(=O)(=O)c1ccc(Nc2nc(NC3CCC3)c3cc[nH]c3n2)cc1 [Example 55, 2-(4-(4-(cyclobutylamino)-7H-pyrrolo[2,3-d]pyrimidin-2-ylamino)-N-methylphenylsulfonamido)acetic acid]
14 | 1 to 10 nM | N#Cc1c[nH]c2nc(Nc3ccc4c(c3)CCC(=O)N4)nc(NC3CC3)c12 [Example 103, 4-(cyclopropylamino)-2-(2-oxo-1,2,3,4-tetrahydroquinolin-6-ylamino)-7H-pyrrolo[2,3-d]pyrimidine-5-carbonitrile]
15 | > 1000 nM | CCCCOC(=O)CC1CCN(c2nc(Nc3ccc4c(c3)CCC(=O)N4)nc3[nH]ccc23)CC1 [Example 119, Butyl 2-(1-(2-(2-oxo-1,2,3,4-tetrahydroquinolin-6-ylamino)-7H-pyrrolo[2,3-d]pyrimidin-4-yl)piperidin-4-yl)acetate]
16 | 10 to 100 nM | CNc1nc(Nc2ccc3cn[nH]c3c2)nc2[nH]cc(-c3ccncc3)c12 [Example 1, N2-(1H-indazol-6-yl)-N4-methyl-5-(pyridin-4-yl)-7H-pyrrolo[2,3-d]pyrimidine-2,4-diamine]
17 | 10 to 100 nM | CN(C(=O)CCO)c1ccc(Nc2nc(NC3CC3)c3cc[nH]c3n2)cc1 [Example 87, N-(4-(4-(cyclopropylamino)-7H-pyrrolo[2,3-d]pyrimidin-2-ylamino)phenyl)-3-hydroxy-N-methypropanamide]
18 | > 1000 nM | CC(=O)N(C)c1ccc(Nc2nc(NCCCCCN)c3c(Br)c[nH]c3n2)cc1 [Example 67, N-(4-(4-(5-aminopentylamino)-5-bromo-7H-pyrrolo[2,3-d]pyrimidin-2-ylamino)phenyl)-N-methylacetamide]
19 | 100 to 1000 nM | N[C@H]1CC[C@@H](Nc2nc(Nc3ccc4c(c3)CCC(=O)N4)ncc2F)CC1 [Example 140, 6-(4-((1s,4s)-4-aminocyclohexylamino)-5-fluoropyrimidin-2-ylamino)-3,4-dihydroquinolin-2(1H)-one]
20 | 100 to 1000 nM | CN(C)CCNC(=O)CN1C(=O)CCc2cc(Nc3nc(NC4CCC4)c4cc[nH]c4n3)ccc21 [Example 71, 2-(6-(4-(cyclobutyamino)-7H-pyrrolo[2,3-d]pyrimidine-2-ylamino)-2-oxo-3,4-dihydroquinolin-1(2H)-yl)-N-(2-(dimethylamino)ethyl)acetamide]
21 | 10 to 100 nM | CN(C(=O)CO)c1ccc(Nc2nc(NC3CCC3)c3cc[nH]c3n2)cc1 [Example 74, N-(4-(4-(cyclobutylamino)-7H-pyrrolo[2,3-d]pyrimidin-2-ylamino)phenyl)-2-hydroxy-N-methylacetamide]
22 | 100 to 1000 nM | NC(=O)c1cnc(-n2ncc3ccc(N)c(Cl)c32)nc1NC1CC1 [Example 7, 2-(6-amino-7-chloro-1H-indazol-1-yl)-4-(cyclopropylamino)pyrimidine-5-carboxamide]
23 | 100 to 1000 nM | COc1ccc(Nc2nc(Nc3ccc4c(c3)CCC(=O)N4)nc3[nH]cc(C#N)c23)cc1 [Example 111, 4-(4-methoxyphenylamino)-2-(2-oxo-1,2,3,4-tetrahydroquinolin-6-ylamino)-7H-pyrrolo[2,3-d]pyrimidine-5-carbonitrile]
24 | 10 to 100 nM | CC(=O)N(C)c1ccc(Nc2nc(NC3CC3)c3c(-c4ccncc4)c[nH]c3n2)cc1 [Example 47, N-(4-(4-(cyclopropylamino)-5-(pyridin-4-yl)-7H-pyrrolo[2,3-d]pyrimidin-2-ylamino)phenyl)-N-methylacetamide]

same assay, conditions: Table 4; 1 nM SYK, 100 μM ATP; read-out: syk IC50

Row | IC50 | Compound
25 | > 1000 nM | CC(=O)N1CCN(c2ccc(Nc3ncc(C(N)=O)c(N4CCCCC4CCO)n3)cc2)CC1 (stereo not drawn) [2-(4-(4-acetylpiperazin-1-yl)phenylamino)-4-(2-(2-hydroxyethyl)piperidin-1-yl)pyrimidine-5-carboxamide]
26 | > 1000 nM | CC(=O)N1CCN(c2ccc(Nc3nc(N4CC[C@H](O)C4)c4cc[nH]c4n3)cc2)CC1 [Example 13, (S)-1-(4-(4-(4-(3-hydroxypyrrolidin-1-yl)-7H-pyrrolo[2,3-d]pyrimidin-2-ylamino)phenyl)piperazin-1-yl)ethanone]
27 | 100 to 1000 nM | CC(=O)N1CCN(c2ccc(Nc3nc(N4CCC(C(N)=O)CC4)c4cc[nH]c4n3)cc2)CC1 [Example 24, 1-(2-(4-(4-acetylpiperazin-1-yl)phenylamino)-7H-pyrrolo[2,3-d]pyrimidin-4-yl)piperidine-4-carboxamide]
